Experimental findings from patent US7754727B2, “4-phenylpiperidine derivatives as renin inhibitors” (Novartis AG, priority 2003, dated 2010) are described below.

Counter-ions that a name gives are not always drawn.

The target in the test is T1, Recombinant human renin (Homo sapiens, UniProt P00797).
T1 construct: made in house; host or cells: Chinese Hamster Ovary cells
T1 sequence (P00797 67-406): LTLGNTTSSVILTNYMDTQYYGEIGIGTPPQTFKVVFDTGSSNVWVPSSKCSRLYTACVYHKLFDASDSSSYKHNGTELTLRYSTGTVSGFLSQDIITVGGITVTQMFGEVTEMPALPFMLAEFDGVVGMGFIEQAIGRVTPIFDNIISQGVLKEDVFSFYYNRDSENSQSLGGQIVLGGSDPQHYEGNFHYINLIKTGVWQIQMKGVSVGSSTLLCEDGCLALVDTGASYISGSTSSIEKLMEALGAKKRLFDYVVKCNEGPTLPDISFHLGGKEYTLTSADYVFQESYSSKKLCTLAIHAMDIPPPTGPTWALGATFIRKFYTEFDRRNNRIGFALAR
Briefly: FRET assay of inhibition of renin activity. The test is classed as biochemical. To be noted: recombinant human renin 4 nM, 1 h at RT, pH 7.4. The protocol:
Recombinant human renin (expressed in Chinese Hamster Ovary cells and purified using standard methods) at 4 nM concentration is incubated with test compound at various concentrations for 1 h at RT in 0.1 M Tris-HCl buffer, pH 7.4, containing 0.05 M NaCl, 0.5 mM EDTA and 0.05% CHAPS. Synthetic peptide substrate Arg-Glu(EDANS)-Ile-His-Pro-Phe-His-Leu-Val-Ile_His_Thr-Lys(DABCYL)-Arg9 is added to a final concentration of 2 μM and increase in fluorescence is recorded at an excitation wave-length of 340 nm and at an emission wave-length of 485 nm in a microplate spectro-fluorimeter. IC50 values are calculated from percentage of inhibition of renin activity as a function of test compound concentration (Fluorescence Resonance Energy Transfer, FRET, assay).

Turning to `c1ccc(-c2cccc([C@H]3CCNC[C@@H]3OCc3ccc4ccccc4c3)c2)cc1` (relative stereo) [Example 1, (3R*,4R*)-4-Biphenyl-3-yl-3-(naphthalen-2-ylmethoxy)-piperidine hydrochloride], the IC50 is ~70 nM.
